The source of these data is patent US9682976B2, “Protein kinase C inhibitors and uses thereof” (Rigel Pharmaceuticals, Inc., priority 2012, dated 2017).

The assay deals with PKC mediated IL-2 production. Briefly: IL-2 ELISA, human primary T cell, anti CD3+CD28+. It counts as cell-based. The following applies: human primary T cells stimulated with αCD3 and αCD28, 24 hours. In outline: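 IL-2 was quantified by ELISA in 24 h supernatants from primary human T cells given a 1 h compound pre-treatment at 37° C. These cells had been expanded from blood mononuclear cells on αCD3/αCD28 with IL-2, and the IL-2 was removed by washing. Stimulation used plate-bound αCD3 ([…]) plus αCD28 (5 μg/ml); the counter assay used PMA (0.5 ng/ml) with ionomycin (0.1 uM) instead.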
On the technique in general: An ELISA detects its analyte on a solid surface through an enzyme-linked reagent.

As a reminder, the EC50 is the concentration that produces a half-maximal response. In the case of `Cn1nnn(-c2cc(Nc3ncc(C#N)c(N[C@@H]4C[C@@H]5CCCN5C(C)(C)C4)n3)c(F)cc2OC(C)(C)CO)c1=O` [Compound 84, 4-((7R,8aS)-octahydro-5,5-dimethylindolizin-7-ylamino)-2-(4-(1-hydroxy-2-methylpropan-2-yloxy)-2-fluoro-5-(4,5-dihydro-4-methyl-5-oxotetrazol-1-yl)phenylamino)pyrimidine-5-carbonitrile], the EC50 (Homo sapiens, T-cell, 24 h) fell in the range of 100 to 500 nM.

Consider `[2H]C1(Oc2ccc(Nc3ncc(F)c(N[C@H]4CCN5[C@@H](CCC5(C)C)C4)n3)cc2-n2nnn(C)c2=O)CC(O)C1` (stereo partly drawn) [Compound 309, 1-(5-((4-(((7S,8aS)-3,3-Dimethyloctahydroindolizin-7-yl)amino)-5-fluoropyrimidin-2-yl)amino)-2-(3-hydroxycyclobutoxy-1-d)phenyl)-4-methyl-1,4-dihydro-5H-tetrazol-5-one], for which the half-maximal effective concentration (EC50) (Homo sapiens, T-cell, 24 h) was in the range of 100 to 500 nM.

Molecule `CC(O)COc1cc(F)c(Nc2ncc(Cl)c(N[C@@H]3C[C@@H]4CCCN4C(C)(C)C3)n2)cc1-n1nnn(C)c1=O` (stereo partly drawn) [Compound 236, 1-(5-((5-chloro-4-(((7R,8aS)-5,5-dimethyloctahydroindolizin-7-yl)amino)pyrimidin-2-yl)amino)-4-fluoro-2-(2-hydroxypropoxy)phenyl)-4-methyl-1,4-dihydro-5H-tetrazol-5-one] displayed an EC50 (Homo sapiens, T-cell, 24 h) of less than 100 nM.

The molecule `Cn1nnn(-c2cc(Nc3ncc(F)c(NC4CCN5C(CCC5(C)C)C4)n3)c(F)cc2C2CC2)c1=O` (single isomer, unassigned) [Compound 35, 1-(5-(5-fluoro-4-(octahydro-3,3-dimethylindolizin-7-ylamino)pyrimidin-2-ylamino)-2-cyclopropyl-4-fluorophenyl)-4-methyl-1H-tetrazol-5(4H)-one] had an EC50 of 1000 to 10000 nM.

As to `Cn1nnn(-c2cc(Nc3ncc(F)c(N[C@H]4C[C@@H]5C[C@@H](F)CN5C(C)(C)C4)n3)c(F)cc2C2CC2)c1=O` [Compound 65, 1-(5-(4-((2R,7S,8aR)-2-fluoro-octahydro-5,5-dimethylindolizin-7-ylamino)-5-fluoropyrimidin-2-ylamino)-2-cyclopropyl-4-fluorophenyl)-4-methyl-1H-tetrazol-5(4H)-one], for the setting “Homo sapiens, T-cell, 24 h”, the EC50 fell in the range of 1000 to 10000 nM.

For the setting “Homo sapiens, T-cell, 24 h”, `Cn1nnn(-c2cc(Nc3ncc(F)c(N(CC(C)(C)O)[C@@H]4C[C@@H]5CCCN5C(C)(C)C4)n3)c(F)cc2OCC(C)(C)O)c1=O` [Compound 139, 1-(5-(4-(((7R,8aS)-5,5-dimethyloctahydroindolizin-7-yl)(2-hydroxy-2-methylpropyl)amino)-5-fluoropyrimidin-2-ylamino)-4-fluoro-2-(2-hydroxy-2-methylpropoxy)phenyl)-4-methyl-1H-tetrazol-5(4H)-one] yielded a 50% effective concentration (EC50) greater than 10000 nM.

For `CNC(=O)c1ccc(Nc2ncc(F)c(N[C@@H]3C[C@@H]4CCCN4C(C)(C)C3)n2)cc1Cl` [Compound 327, 4-(4-((7R,8aS)-octahydro-5,5-dimethylindolizin-7-ylamino)-5-fluoropyrimidin-2-ylamino)-2-chloro-N-methylbenzamide], the EC50 (Homo sapiens, T-cell, 24 h) was 500 to 1000 nM.

For `CO[C@@H](C)COc1cc(F)c(Nc2ncc(F)c(N(C[C@H](C)OC)[C@@H]3C[C@@H]4CCCN4C(C)(C)C3)n2)cc1-n1nnn(C)c1=O` [Compound 234, 1-(5-((4-(((7R,8aS)-5,5-dimethyloctahydroindolizin-7-yl)((S)-2-methoxypropyl)amino)-5-fluoropyrimidin-2-yl)amino)-4-fluoro-2-((S)-2-methoxypropoxy)phenyl)-4-methyl-1,4-dihydro-5H-tetrazol-5-one], the EC50 (Homo sapiens, T-cell, 24 h) was greater than 10000 nM.

Under “Homo sapiens, T-cell, 24 h”, `Cn1nnn(-c2cc(Nc3ncc(F)c(N[C@H]4C[C@@H]5CC(F)(F)CN5C(C)(C)C4)n3)c(F)cc2C2CC2)c1=O` [Compound 42, 1-(5-(4-((7S,8aR)-2,2-difluoro-octahydro-5,5-dimethylindolizin-7-ylamino)-5-fluoropyrimidin-2-ylamino)-2-cyclopropyl-4-fluorophenyl)-4-methyl-1H-tetrazol-5(4H)-one] came in with an EC50 of 1000 to 10000 nM.

In the case of `CC1(C)C[C@H](Nc2nc(Nc3ccc(OCCO)c(C#N)c3)ncc2F)C[C@@H]2CCCN21` [Compound 189, 5-((4-(((7R,8aS)-5,5-dimethyloctahydroindolizin-7-yl)amino)-5-fluoropyrimidin-2-yl)amino)-2-(2-hydroxyethoxy)benzonitrile], the EC50 (Homo sapiens, T-cell, 24 h) was in the range of 100 to 500 nM.

Consider `CC1(C)C[C@H](Nc2nc(Nc3cccc(-n4nnnc4SC(CO)CO)c3)ncc2F)C[C@@H]2CCCN21` [Compound 263, 2-(1-(3-(4-((7R,8aS)-octahydro-5,5-dimethylindolizin-7-ylamino)-5-fluoropyrimidin-2-ylamino)phenyl)-1H-tetrazol-5-ylthio)propane-1,3-diol], for which the EC50 (Homo sapiens, T-cell, 24 h) fell in the range of 100 to 500 nM.

Where the note is “Homo sapiens, T-cell, 24 h”, `Cn1nnn(-c2cc(Nc3ncc(F)c(N[C@@H]4C[C@@H]5CCCN5C(C)(C)C4)n3)c(F)cc2C#N)c1=O` [Compound 98, 4-(4-((7R,8aS)-octahydro-5,5-dimethylindolizin-7-ylamino)-5-fluoropyrimidin-2-ylamino)-5-fluoro-2-(4,5-dihydro-4-methyl-5-oxotetrazol-1-yl)benzonitrile] yielded an EC50 of 100 to 500 nM.

`Cc1nnnn1-c1cc(Nc2ncc(F)c(N[C@@H]3C[C@@H]4CCCN4C(C)(C)C3)n2)c(F)cc1O` [Compound 252, 4-(4-((7R,8aS)-octahydro-5,5-dimethylindolizin-7-ylamino)-5-fluoropyrimidin-2-ylamino)-5-fluoro-2-(5-methyl-1H-tetrazol-1-yl)phenol]: the concentration for a half-maximal effect (EC50) (Homo sapiens, T-cell, 24 h) was 1000 to 10000 nM.

Molecule `CC1(C)C[C@H](Nc2nc(Nc3ccc(OC4CCNCC4)c(C(F)(F)F)c3)ncc2F)C[C@@H]2CCCN21` [Compound 118, N^4-((7R,8aS)-5,5-dimethyloctahydroindolizin-7-yl)-5-fluoro-N^2-(4-(piperidin-4-yloxy)-3-(trifluoromethyl)phenyl)pyrimidine-2,4-diamine] returned a half-maximal effective concentration (EC50) (Homo sapiens, T-cell, 24 h) of 100 to 500 nM.

`CC1(C)C[C@H](Nc2nc(Nc3ccc(C4CC4)c(C#N)c3)ncc2Cl)C[C@@H]2CCCN21` [Compound 155, 5-((5-chloro-4-(((7R,8aS)-5,5-dimethyloctahydroindolizin-7-yl)amino)pyrimidin-2-yl)amino)-2-cyclopropylbenzonitrile]: for the setting “Homo sapiens, T-cell, 24 h”, the EC50 was less than 100 nM.

In turn, `CC(C)N1CCC(Oc2ccc(Nc3ncc(F)c(N[C@@H]4C[C@H]5CCCN5C(C)(C)C4)n3)cc2OC(F)F)CC1` (single isomer, unassigned) [Compound 8, (R/S, S/R, R/R, S/S)-N^2-(4-(1-isopropylpiperidin-4-yloxy)-3-(difluoromethoxy)phenyl)-5-fluoro-N^4-(octahydro-5,5-dimethylindolizin-7-yl)pyrimidine-2,4-diamine] displayed an EC50 of 500 to 1000 nM.

Molecule `CC1(COc2ccc(Nc3ncc(F)c(N[C@@H]4C[C@@H]5CCCN5C(C)(C)C4)n3)cc2-n2cnnn2)COC1` [Compound 203, N4-((7R,8aS)-5,5-dimethyloctahydroindolizin-7-yl)-5-fluoro-N2-(4-((3-methyloxetan-3-yl)methoxy)-3-(1H-tetrazol-1-yl)phenyl)pyrimidine-2,4-diamine] yielded a 50% effective concentration (EC50) (Homo sapiens, T-cell, 24 h) of less than 100 nM.

Molecule `CC1(C)C[C@H](N(CC(O)CO)c2nc(Nc3ccc(OCC(O)CO)c(C#N)c3)ncc2F)C[C@@H]2CCCN21` (stereo partly shown) [Compound 211] had an EC50 (T-cell) of 1000 to 10000 nM.

`Cn1nnn(-c2cc(Nc3ncc(F)c(NC4CC5CCCN5C(C)(C)C4)n3)ccc2OC2COC2)c1=O` (stereo not shown) [Compound 40, 1-(5-(5-fluoro-4-(octahydro-5,5-dimethylindolizin-7-ylamino)pyrimidin-2-ylamino)-2-(oxetan-3-yloxy)phenyl)-4-methyl-1H-tetrazol-5(4H)-one] showed an EC50 (Homo sapiens, T-cell, 24 h) of less than 100 nM.

For the setting “Homo sapiens, T-cell, 24 h”, `CC1(C)C[C@H](Nc2nc(Nc3cc(-n4nnnc4C4CC4)ccc3F)ncc2F)C[C@@H]2CCCN21` [Compound 144, N2-(5-(5-cyclopropyl-1H-tetrazol-1-yl)-2-fluorophenyl)-N4-((7R,8aS)-5,5-dimethyloctahydroindolizin-7-yl)-5-fluoropyrimidine-2,4-diamine] yielded a 50% effective concentration (EC50) of less than 100 nM.

For `CC1(C)CC(Nc2nc(Nc3cc(-n4cnnn4)c(C4CC4)cc3F)ncc2F)CC2CCCN21` (single isomer, unassigned) [Compound 55, N^2-(4-cyclopropyl-2-fluoro-5-(1H-tetrazol-1-yl)phenyl)-5-fluoro-N^4-(octahydro-5,5-dimethylindolizin-7-yl)pyrimidine-2,4-diamine], the EC50 is 100 to 500 nM.

In turn, `Cc1ccc(Nc2ncc(F)c(N[C@@H]3C[C@@H]4CCCN4C(C)(C)C3)n2)cc1-n1nnnc1S(C)(=O)=O` [Compound 286, 5-fluoro-N4-((7R,8aS)-octahydro-5,5-dimethylindolizin-7-yl)-N2-(4-methyl-3-(5-(methylsulfonyl)-1H-tetrazol-1-yl)phenyl)pyrimidine-2,4-diamine] displayed an EC50 (Homo sapiens, T-cell, 24 h) greater than 10000 nM.

The molecule `CC(C)N1CCC(Oc2ccc(Nc3ncc(F)c(N[C@H]4C[C@@H]5CCCN5C(C)(C)C4)n3)cc2OC(F)F)CC1` (single isomer, unassigned) [Compound 9, (R/S, S/R, R/R, S/S)-N^2-(4-(1-isopropylpiperidin-4-yloxy)-3-(difluoromethoxy)phenyl)-5-fluoro-N^4-(octahydro-5,5-dimethylindolizin-7-yl)pyrimidine-2,4-diamine] had a half-maximal effective concentration (EC50) of 100 to 500 nM.

`CC1(C)C[C@H](Nc2nc(Nc3ccc(O)c(C#N)c3)ncc2F)C[C@@H]2CCCN21` [Compound 168, 5-((4-(((7R,8aS)-5,5-dimethyloctahydroindolizin-7-yl)amino)-5-fluoropyrimidin-2-yl)amino)-2-hydroxybenzonitrile]: where the note is “Homo sapiens, T-cell, 24 h”, the EC50 lay within 1000 to 10000 nM.

For the molecule `Cn1nnn(-c2cc(Nc3ncc(F)c(N[C@@H]4C[C@@H]5CCCN5C(C)(C)C4)n3)c(F)cc2CCCO)c1=O` [Compound 97, 1-(5-(4-((7R,8aS)-octahydro-5,5-dimethylindolizin-7-ylamino)-5-fluoropyrimidin-2-ylamino)-4-fluoro-2-(3-hydroxypropyl)phenyl)-4-methyl-1H-tetrazol-5(4H)-one], the EC50 (Homo sapiens, T-cell, 24 h) is 100 to 500 nM.
